Results reported in article PMC10100877, “Identification of Small-Molecule Inhibitors of the Salmonella FraB Deglycase Using a Live-Cell Assay” (Microbiology Spectrum, 2023).
Structures can show the parent of a compound that is named as a salt. Where two headings read alike, the source gives them in different places.

Columns and labels:
[1] = tested on: wild-type Salmonella (ASD200) live cells; assay: Live-cell growth assay, concentration-response (IC50/IC90) of the top 8 purchased compounds; assay type: cell-based, Salmonella enterica serovar Typhimurium; settings: for IC50: read-out: IC50 with live cells, value (95% CI), concentration that inhibits growth to 50%; for IC90: read-out: IC90 with live cells, value (95% CI), concentration that inhibits growth to 90%
recombinant FraB = recombinant FraB (Salmonella enterica subsp. enterica serovar Typhimurium, UniProt Q8ZLD0); assay type: biochemical; settings: for IC50: read-out: IC50 with recombinant FraB (mean ± SE); for Ki: read-out: Ki′ with FraB (mean ± SD)
[2] = tested on: fraB mutants of Salmonella; assay: Growth inhibition (intoxication) of fraB mutants by F-Asn; assay type: cell-based; settings: new gram-scale preparations of F-Asn
[3] = tested on: fraB mutants of Salmonella; parameters: method as in PMID 27258673; settings: F-Asn made with the small-scale synthesis route; cited from earlier work
[4] = M9 minimal medium, 5 mM glucose, 1 mM F-Asn, 17-h time point, 95% CI in brackets

Chain of recombinant FraB (Q8ZLD0 1-325): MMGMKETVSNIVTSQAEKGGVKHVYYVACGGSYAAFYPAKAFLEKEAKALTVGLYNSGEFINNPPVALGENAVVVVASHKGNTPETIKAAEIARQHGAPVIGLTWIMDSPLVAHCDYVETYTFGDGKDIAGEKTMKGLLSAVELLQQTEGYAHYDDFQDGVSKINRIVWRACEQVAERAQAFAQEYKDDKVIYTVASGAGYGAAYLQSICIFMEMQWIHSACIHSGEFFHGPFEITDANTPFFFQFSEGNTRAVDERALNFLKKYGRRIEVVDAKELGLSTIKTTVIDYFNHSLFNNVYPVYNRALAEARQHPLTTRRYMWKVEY

Row | Compound | IC50 [1, 4] [µM] | IC90 [1, 4] [µM] | IC50 (recombinant FraB) [µM] | IC50 [2] [µM] | IC50 [3] [µM] | IC50 ([1]; 17 h) [µM] | IC90 ([1]; 17 h) [µM] | mode of inhibition of FraB (recombinant FraB) | Ki (recombinant FraB) [µM]
1 | O=C(O)/C=C/Sc1ccccc1 [1737:K20] | 121 | 503 | > 1000 |  |  |  |  |  | 
2 | NC(=O)C[C@H](NCC(=O)[C@@H](O)[C@H](O)[C@H](O)CO)C(=O)O [F-Asn, fructose-asparagine] |  |  |  | ~30 | ~20 |  |  |  | 
3 | CCOc1ccc(N2C(=O)NC(=O)/C(=C/c3cc(Cl)c(O)c(OC)c3)C2=O)cc1 [611:D03] |  |  |  |  |  | 100 | 240 |  | 
4 | COc1ccc2[nH]c(SC)nc2c1 [1582:D17] | 143 | 318 | > 1000 |  |  |  |  |  | 
5 | C/C(=N\O)C(=O)c1ccc(Cl)cc1 [1789:D13] | 183 | 348 | > 1000 |  |  |  |  |  | 
6 | c1ccc([B-]2(c3ccccc3)[NH2+]CCO2)cc1 [3403:P13, 2,2-diphenyl-1,3,2-oxaazaborolidine internal salt] | 89 | 184 | 35 ± 0.9 |  |  |  |  | 27 ± 6 uncompetitive | 27 ± 6
7 | O=c1c(=NO)c(=O)c2ccccc12 [1669:M19, triketoindan-2-oxime] | 109 | 297 | 133 ± 0.8 |  |  |  |  | 26 ± 4; uncompetitive | 26 ± 4
8 | Nc1cc(C(=O)O)ccc1Nc1ccccc1 [1609:K19, 3-amino-4-(phenylamino)benzoic acid] | 155 | 411 | 114 ± 3.8 |  |  |  |  | 116 ± 27; uncompetitive | 116 ± 27
